# Reference: PubChem BioAssay AID1918946 (Molecular Pharmacology Branch, DTP, NCI, 2023)
# Where “and” joins values, the source holds several entries; their conditions need not be identical. Equal entries are not always repeated.
# System: 885512-296-R-J2-PDC complex spheroid viability
# Assay: Anticancer human tumor 885512-296-R-J2-PDC patient-derived breast carcinoma cell line growth inhibition
# Conditions: for viability, T/C: stronger effect = lower value
# Procedure, shortened: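 Multicellular complex spheroids of tumor cells with human endothelial cells (HUVEC) and mesenchymal stem cells; the LSD1 inhibitor iadademstat was combined with standard-of-care or investigational agents. Top concentration at or near clinical Cmax, half-log dilutions; final DMSO ≤0.25%.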
# [1] = curve of first compound, second compound 0.1 µM
# [2] = curve of first compound, second compound 0.316 µM
# [3] = curve of first compound, second compound 1 µM
# [4] = curve of first compound, second compound 3.16 µM
# [5] = curve of first compound, second compound 10 µM
# [6] = second compound 0.1 µM, first compound 0.00949 µM
# [7] = second compound 0.1 µM, first compound 0.03 µM
# [8] = second compound 0.1 µM, first compound 0.0949 µM
# [9] = second compound 0.1 µM, first compound 0.3 µM
# [10] = second compound 0.316 µM, first compound 0.00949 µM
# [11] = second compound 0.316 µM, first compound 0.03 µM
# [12] = second compound 0.316 µM, first compound 0.0949 µM
# [13] = second compound 0.316 µM, first compound 0.3 µM
# [14] = second compound 1 µM, first compound 0.00949 µM
# [15] = second compound 1 µM, first compound 0.03 µM
# [16] = second compound 1 µM, first compound 0.0949 µM
# [17] = second compound 1 µM, first compound 0.3 µM
# [18] = second compound 3.16 µM, first compound 0.00949 µM
# [19] = second compound 3.16 µM, first compound 0.03 µM
# [20] = second compound 3.16 µM, first compound 0.0949 µM
# [21] = second compound 3.16 µM, first compound 0.3 µM
# [22] = second compound 10 µM, first compound 0.00949 µM
# [23] = second compound 10 µM, first compound 0.03 µM
# [24] = second compound 10 µM, first compound 0.0949 µM
# [25] = second compound 10 µM, first compound 0.3 µM
# 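Also: spheroids exposed to agents for 7 days before viability read.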
smiles,measurement,setting,value
O=C(C=Cn1cnc(-c2cc(C(F)(F)F)cc(C(F)(F)F)c2)n1)NNc1cnccn1 + NC1CCC(NC2CC2c2ccccc2)CC1,IC50,[1],< 3.16 nM
same,IC50,[2],< 3.16 nM
same,IC50,[3],< 3.16 nM
same,IC50,[4],< 3.16 nM
same,IC50,[5],< 3.16 nM
same,"viability, T/C","second compound 0.1 µM, first compound 0.00316 µM",34%
same,"viability, T/C","second compound 0.1 µM, first compound 0.01 µM",7.13%
same,"viability, T/C","second compound 0.1 µM, first compound 0.0316 µM",7%
same,"viability, T/C","second compound 0.1 µM, first compound 0.1 µM",5.05%
same,"viability, T/C","second compound 0.1 µM, first compound 0.316 µM",5.84%
same,"viability, T/C","second compound 0.1 µM, first compound 1 µM",8.68%
same,"viability, T/C","second compound 0.316 µM, first compound 0.00316 µM",36.5%
same,"viability, T/C","second compound 0.316 µM, first compound 0.01 µM",6.98%
same,"viability, T/C","second compound 0.316 µM, first compound 0.0316 µM",4.07%
same,"viability, T/C","second compound 0.316 µM, first compound 0.1 µM",1.21%
same,"viability, T/C","second compound 0.316 µM, first compound 0.316 µM",8.2%
same,"viability, T/C","second compound 0.316 µM, first compound 1 µM",6.75%
same,"viability, T/C","second compound 1 µM, first compound 0.00316 µM",47.5%
same,"viability, T/C","second compound 1 µM, first compound 0.01 µM",6.6%
same,"viability, T/C","second compound 1 µM, first compound 0.0316 µM",1.46%
same,"viability, T/C","second compound 1 µM, first compound 0.1 µM",1.03%
same,"viability, T/C","second compound 1 µM, first compound 0.316 µM",3.55%
same,"viability, T/C","second compound 1 µM, first compound 1 µM",0.74%
same,"viability, T/C","second compound 3.16 µM, first compound 0.00316 µM",26.8%
same,"viability, T/C","second compound 3.16 µM, first compound 0.01 µM",6.99%
same,"viability, T/C","second compound 3.16 µM, first compound 0.0316 µM",1.67%
same,"viability, T/C","second compound 3.16 µM, first compound 0.1 µM",0.99%
same,"viability, T/C","second compound 3.16 µM, first compound 0.316 µM",0.76%
same,"viability, T/C","second compound 3.16 µM, first compound 1 µM",3.58%
same,"viability, T/C","second compound 10 µM, first compound 0.00316 µM",26.8%
same,"viability, T/C","second compound 10 µM, first compound 0.01 µM",7.4%
same,"viability, T/C","second compound 10 µM, first compound 0.0316 µM",1.17%
same,"viability, T/C","second compound 10 µM, first compound 0.1 µM",0.87%
same,"viability, T/C","second compound 10 µM, first compound 0.316 µM",2.75%
same,"viability, T/C","second compound 10 µM, first compound 1 µM",0.69%
Nc1ccn(C2OC(CO)C(O)C2(F)F)c(=O)n1 (configuration not stated),"viability, T/C",compound 0.000949 µM,5.28% and 20.8%
same,"viability, T/C",compound 0.003 µM,8.05% and 3%
same,"viability, T/C",compound 0.00949 µM,5.82% and 2.16%
same,"viability, T/C",compound 0.03 µM,8.91% and 2.45%
same,"viability, T/C",compound 0.0949 µM,10.2% and 2.79%
same,"viability, T/C",compound 0.3 µM,8.07% and 3.31%
same,IC50,curve of compound,< 0.949 nM
COc1cc(C2c3cc4c(cc3C(OC3OC5COC(C)OC5C(O)C3O)C3COC(=O)C23)OCO4)cc(OC)c1O (configuration not stated) + NC1CC1c1ccc(-c2cccc(O)c2)cc1,IC50,[1],51.7 nM
same,IC50,[2],48.4 nM
same,IC50,[3],46.7 nM
same,IC50,[4],35.8 nM
same,IC50,[5],19 nM
same,"viability, T/C",[6],115%
same,"viability, T/C",[7],78.2%
same,"viability, T/C",[8],18.4%
same,"viability, T/C",[9],5.27%
same,"viability, T/C","second compound 0.1 µM, first compound 0.949 µM",3.81%
same,"viability, T/C","second compound 0.1 µM, first compound 3 µM",3.41%
same,"viability, T/C",[10],111%
same,"viability, T/C",[11],73.5%
same,"viability, T/C",[12],17%
same,"viability, T/C",[13],4.71%
same,"viability, T/C","second compound 0.316 µM, first compound 0.949 µM",3.36%
same,"viability, T/C","second compound 0.316 µM, first compound 3 µM",2.8%
same,"viability, T/C",[14],113%
same,"viability, T/C",[15],71%
same,"viability, T/C",[16],16.5%
same,"viability, T/C",[17],5.06%
same,"viability, T/C","second compound 1 µM, first compound 0.949 µM",4%
same,"viability, T/C","second compound 1 µM, first compound 3 µM",3.54%
same,"viability, T/C",[18],100%
same,"viability, T/C",[19],56%
same,"viability, T/C",[20],17.2%
same,"viability, T/C",[21],3.77%
same,"viability, T/C","second compound 3.16 µM, first compound 0.949 µM",3.77%
same,"viability, T/C","second compound 3.16 µM, first compound 3 µM",2.6%
same,"viability, T/C",[22],68.4%
same,"viability, T/C",[23],37.9%
same,"viability, T/C",[24],9.86%
same,"viability, T/C",[25],3.55%
same,"viability, T/C","second compound 10 µM, first compound 0.949 µM",3.7%
same,"viability, T/C","second compound 10 µM, first compound 3 µM",3.37%
Nc1ncn(C2CC(O)C(CO)S2)c(=O)n1 (configuration not stated) + NC1CC1c1ccc(-c2cccc(O)c2)cc1,IC50,[1],4.6 nM
same,IC50,[2],4.26 nM
same,IC50,[3],4.39 nM
same,IC50,[4],2.81 nM
same,IC50,[5],0.989 nM
same,"viability, T/C","second compound 0.1 µM, first compound 0.000949 µM",91.2%
same,"viability, T/C","second compound 0.1 µM, first compound 0.003 µM",62%
same,"viability, T/C",[6],29.4%
same,"viability, T/C",[7],15.9%
same,"viability, T/C",[8],8.39%
same,"viability, T/C",[9],4.32%
same,"viability, T/C","second compound 0.316 µM, first compound 0.000949 µM",84.1%
same,"viability, T/C","second compound 0.316 µM, first compound 0.003 µM",60.6%
same,"viability, T/C",[10],26.1%
same,"viability, T/C",[11],14.8%
same,"viability, T/C",[12],8.48%
same,"viability, T/C",[13],4.51%
same,"viability, T/C","second compound 1 µM, first compound 0.000949 µM",75%
same,"viability, T/C","second compound 1 µM, first compound 0.003 µM",60.4%
same,"viability, T/C",[14],29.5%
same,"viability, T/C",[15],13.8%
same,"viability, T/C",[16],7.96%
same,"viability, T/C",[17],4.21%
same,"viability, T/C","second compound 3.16 µM, first compound 0.000949 µM",61.6%
same,"viability, T/C","second compound 3.16 µM, first compound 0.003 µM",50.2%
same,"viability, T/C",[18],25.9%
same,"viability, T/C",[19],12.9%
same,"viability, T/C",[20],6.26%
same,"viability, T/C",[21],4.09%
same,"viability, T/C","second compound 10 µM, first compound 0.000949 µM",50.1%
same,"viability, T/C","second compound 10 µM, first compound 0.003 µM",39.8%
same,"viability, T/C",[22],17.2%
same,"viability, T/C",[23],9.45%
same,"viability, T/C",[24],5.85%
same,"viability, T/C",[25],3.58%
